# Results published in publication PMC5651918, “Evolving stability and pH-dependent activity of the high redox potential Botrytis aclada laccase for enzymatic fuel cells” (Scientific Reports, 2017).
# Target: T1, Botrytis aclada laccase (BaL WT) (Botrytis aclada, UniProt H8ZRU2)
# T1 construct: BaL cDNA, secreted recombinant from Pichia pastoris X-33 (pGAPZ A, pBaLac)
# T1 sequence (H8ZRU2 20-580): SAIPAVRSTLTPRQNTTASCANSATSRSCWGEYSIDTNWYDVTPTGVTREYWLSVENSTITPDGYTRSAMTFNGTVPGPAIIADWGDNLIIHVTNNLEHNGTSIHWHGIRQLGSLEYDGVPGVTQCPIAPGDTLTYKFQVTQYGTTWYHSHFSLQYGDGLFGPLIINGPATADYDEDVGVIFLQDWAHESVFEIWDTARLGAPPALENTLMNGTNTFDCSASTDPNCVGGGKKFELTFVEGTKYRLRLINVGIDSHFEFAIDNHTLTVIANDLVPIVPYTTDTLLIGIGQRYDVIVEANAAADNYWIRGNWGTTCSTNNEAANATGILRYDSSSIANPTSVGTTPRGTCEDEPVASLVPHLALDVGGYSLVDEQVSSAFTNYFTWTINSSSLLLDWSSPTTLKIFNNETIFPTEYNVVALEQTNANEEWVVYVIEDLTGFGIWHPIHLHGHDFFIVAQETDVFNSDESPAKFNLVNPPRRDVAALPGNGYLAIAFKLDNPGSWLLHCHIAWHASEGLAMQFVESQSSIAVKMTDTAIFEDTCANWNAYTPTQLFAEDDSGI
# Assay: steady-state photometric kinetics, Michaelis-Menten fit
# Type: biochemical
# Details: pH 3.0, 4.5 and 6.0; apparent constants
smiles,measurement,value
"CCn1c(=NN=c2sc3cc(S(=O)(=O)O)ccc3n2CC)sc2cc(S(=O)(=O)O)ccc21 [ABTS, 2,2′-azino-bis(3-ethylbenzothiazoline-6-sulfonic acid)]",KM,apparent steady-state kinetic constants were determined for the two substrates DMP and ABTS
"COc1cccc(OC)c1O [DMP, 2,6-dimethoxyphenol]",KM,apparent steady-state kinetic constants were determined for the two substrates DMP and ABTS
